Experimental data: patent US20240180881A1, “METHODS FOR DECREASING RESISTANCE TO CHEMOTHERAPY” (National Institute of Immunology, priority 2022, published 2024)
Read-outs that look alike come from different tables or passages of the source.

Key:
[1] = tested on: HCT116 WT cells; experiment: MTT assay, chemotherapeutic drug gradient with or without disruptor; format: cell-based; details: for EC50: MTT, 72 hours
Method: (§1) The three resistant lines and their wildtype counterpart HCT116 were exposed to a gradient of CPT, CDDP or 1-OHP.
(§2) Concentrations of CPT used: 0.140 nM, 20 nM, 50 nM, 1000 nM. Concentration of 1-OHP: 0.14 μM, 2 μM, 4 μM, 6 μM, 8 μM. Concentrations of CDDP used: 0.140 μM, 2 μM, 5 μM, 10 μM. The percentage of viable cells were determined by MTT assays (FIG. 12A-12C). The data in FIG. 12A and FIG. 12C is from three independent experiments and the data in FIG. 12B is from nine independent experiments. […] The levels of MRP2, MRP3, MRP5, MXR were quantitated from three independent experiments. […] Specifically, HCT116 IC60 CPTR cells were transfected with the HR substrate for 72 hours and the levels of HR was determined (FIG. 6A). The data is from three independent experiments. […] The number of soft agar colonies in each condition were counted. The data is from three independent experiments.
To generate camptothecin and cisplatin resistant cells (named as HCT116 IC60 CPT^R, HCT116 IC60 CDDP^R respectively), HCT116 wild type were seeded in a 10 cm dish to a confluency of 80%. The IC20 concentrations of cisplatin (3.38 μM) and camptothecin (12.6 nM) was added for 2 hours and 6 hours, respectively. Post treatment, the cells were washed twice with 1×PBS and fresh media was added. After every 48 hours, the media was changed and IC20 concentration of the drugs were added only if the confluency of cells was at least 80%. […] Resistant index was calculated using the following formula: Resistant index=IC60 of the resistant cells/IC60 of the parental cells.
Cells were seeded in a 96-well plate overnight. Next day, the culturing media was replaced with Optimem media, followed by incubation with BLM_CPP or SCM_CPP for 1 hr. The final concentrations of the peptides were 450 nM for cisplatin (CDDP) and 180 nM (for all other drugs). […] Post treatment, the cells were washed with 1×PBS and fresh media was added. After 72 hours, MTT assay was carried out to determine the percentage cell viability of the cells with respect to the untreated cells.

[2] = tested on: HCT116 IC60 1-OHPR cells; details: read-out: EC50 (μM), HCT116 1-OHP^R + 1-OHP; 1-OHP gradient alone, MTT, 72 hours
Method: as §1, §2
(§3) To generate camptothecin and cisplatin resistant cells (named as HCT116 IC60 CPT^R, HCT116 IC60 CDDP^R respectively), HCT116 wild type were seeded in a 10 cm dish to a confluency of 80%. The IC20 concentrations of cisplatin (3.38 μM) and camptothecin (12.6 nM) was added for 2 hours and 6 hours, respectively. […] Resistant index was calculated using the following formula: Resistant index=IC60 of the resistant cells/IC60 of the parental cells. […]

[3] = tested on: HCT116 IC60 CDDPR cells; experiment: MTT assay, CDDP gradient with or without disruptor; format: cell-based; details: CDDP gradient alone, 72 hours, read-out: EC50 (μM), HCT116 WT CDDP^R
Method: as §1, §2, §3

[4] = HCT116, used to generate resistant cells

| EC50 ([1]; CDDP gradient alone, read-out: EC50 (μM), HCT116 WT) [µM] | EC50 [3] [µM] | Structure (SMILES) | EC50 ([1]; 1-OHP gradient alone, read-out: EC50 (μM), HCT116 WT + 1-OHP) [µM] | EC50 [2] [µM] | IC40 concentration [1, 4] [µM] | IC60 concentration [1, 4] [µM] | IC20 ([1]; HCT116 wild type, used to generate resistant cells, read-out: IC20 concentration) [µM] |
| --- | --- | --- | --- | --- | --- | --- | --- |
|  |  | N[C@@H]1CCCC[C@H]1N.O=C([O-])C(=O)[O-].[Pt+2] [1-OHP, oxaliplatin] | 4.77 | 14.1 |  |  |  |
| 3.78 | 21.7 | [NH2][Pt]([NH2])([Cl])[Cl] [CDDP, cisplatin] |  |  | 15.5 | 35.09 | 3.38 |
